From US6737383B1, “Herbicidal oxadiazolidines” (priority 1999, dated 2004)

Columns and labels:
[1] = test system: bamyardgrass; assay: Test B flood test barnyardgrass; type: in vivo, Echinochloa crus-galli
How it was run: (§1)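 Flood test on plants grown to the 2-leaf stage; treated plants kept in greenhouse twelve to sixteen days, then visually rated against controls on a 0 (no effect) to 10 (complete control) scale.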

[2] = test system: purple nutsedge; assay: Test B pre/postemergence purple nutsedge; type: in vivo, Cyperus rotundus
How it was run: (§2)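 Response is a visual 0-to-10 score relative to untreated plants, where 0 means no effect and 10 means complete control, taken twelve to sixteen days after application. Treatments went onto soil at planting and onto foliage of 1- to 4-leaf plants, using a surfactant-containing non-phytotoxic solvent.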

[3] = test system: pigweed; assay: Test B pre/postemergence pigweed; type: in vivo, Amaranthus retroflexus
How it was run: as §2

[4] = test system: smallflower flatsedge; assay: Test B flood test smallflower flatsedge; type: in vivo, Cyperus difformis
How it was run: as §1

[5] = test system: giant foxtail; assay: Test B pre/postemergence giant foxtail; type: in vivo, Setaria faberii
How it was run: as §2

[6] = test system: wheat; assay: Test B pre/postemergence wheat; type: in vivo, Triticum aestivum
How it was run: as §2

[7] = test system: morningglory; assay: Test B pre/postemergence morningglory; type: in vivo, Ipomoea hederacea
How it was run: as §2

[8] = test system: surinam grass; assay: Test B pre/postemergence surinam grass; type: in vivo, Brachiaria decumbens
How it was run: as §2

[9] = Postemergence, Rate 62 g/ha, scale 0 to 10, 0 is no effect, 10 is complete control
[10] = Rate 62 g/ha, headed Pre-emergence (flood test species), scale 0 to 10 (0 no effect, 10 complete control)
[11] = Rate 125 g/ha, Postemergence section (flood test species), scale 0 to 10, 0 no effect, 10 complete control
[12] = Rate 125 g/ha, Pre-emergence, flood test species, scale 0 to 10 where 0 is no effect and 10 is complete control
[13] = Rate 250 g/ha, headed Pre-emergence (flood test species), scale 0 to 10 (0 no effect, 10 complete control)
[14] = Rate 500 g/ha, headed Pre-emergence (flood test species), scale 0 to 10 (0 no effect, 10 complete control)
[15] = flood test, listed under Postemergence, Rate 250 g/ha, scale 0 to 10, 0 no effect, 10 complete control
[16] = Postemergence, Rate 250 g/ha, scale 0 to 10, 0 no effect, 10 complete control
[17] = Preemergence, Rate 62 g/ha, scale 0 to 10, 0 is no effect, 10 is complete control
[18] = Preemergence, Rate 125 g/ha, scale 0 to 10 (0 no effect, 10 complete control)
[19] = Preemergence, Rate 250 g/ha, scale of 0 to 10 where 0 is no effect and 10 is complete control
[20] = Preemergence, Rate 500 g/ha, scale 0 (no effect) to 10 (complete control)
[21] = Rate 125 g/ha, Postemergence, scale 0 to 10, 0 no effect, 10 complete control
[22] = Rate 500 g/ha, Postemergence, 0 to 10 scale (0 no effect, 10 complete control)

Cc1cccc(C)c1-n1c(=O)on(C(=O)N(c2ccc(F)cc2)C(C)C)c1=O [Compound 18]
3: Giant foxtail plant response rating [5, 22] | Morningglory plant response rating [7, 22]
8: Plant response rating, Barnyardgrass [1, 14] | Plant response rating, Redroot pigweed [3, 19] | Plant response rating, Giant foxtail [5, 19] | B. signalgrass plant response rating [8, 20]
4: Plant response rating, Redroot pigweed [3, 17]
1: Redroot pigweed plant response rating [3, 9] | Redroot pigweed plant response rating [3, 16] | Redroot pigweed plant response rating [3, 21] | Giant foxtail plant response rating [5, 16] | Giant foxtail plant response rating [5, 21] | Morningglory plant response rating [7, 9] | Morningglory plant response rating [7, 21]
2: Barnyardgrass plant response rating [1, 10] | Barnyardgrass plant response rating [1, 12] | Barnyardgrass plant response rating [1, 13] | Plant response rating, Giant foxtail [5, 17] | Morningglory plant response rating [7, 16] | Morningglory plant response rating [7, 20]
10: Barnyardgrass plant response rating ([1]; Rate 500 g/ha, Postemergence section of Table B, 0 to 10 scale (0 no effect, 10 complete control))
9: Barnyardgrass plant response rating ([1]; Rate 1000 g/ha, Pre-emergence (as headed), scale 0 to 10) | Barnyardgrass plant response rating ([1]; Rate 2000 g/ha, Pre-emergence (as headed), scale 0 to 10, 0 no effect, 10 complete control) | Barnyardgrass plant response rating [1, 15] | Redroot pigweed plant response rating [3, 20] | Giant foxtail plant response rating [5, 20]
6: Redroot pigweed plant response rating [3, 22] | Plant response rating, S. Flatsedge [4, 14] | S. Flatsedge plant response rating [4, 15]
7: Plant response rating, Redroot pigweed [3, 18] | Plant response rating, B. signalgrass [8, 19]
0: Barnyardgrass plant response rating [1, 9] | Barnyardgrass plant response rating [1, 11] | Nutsedge plant response rating [2, 9] | Nutsedge plant response rating [2, 16] | Plant response rating, Nutsedge [2, 17] | Plant response rating, Nutsedge [2, 18] | Plant response rating, Nutsedge [2, 19] | Nutsedge plant response rating [2, 20] | Nutsedge plant response rating [2, 21] | Nutsedge plant response rating [2, 22] | S. Flatsedge plant response rating [4, 9] | S. Flatsedge plant response rating ([4]; Pre-emergence, Rate 1000 g/ha, scale 0 to 10 (0 no effect, 10 complete control)) | S. Flatsedge plant response rating [4, 10] | S. Flatsedge plant response rating [4, 11] | S. Flatsedge plant response rating [4, 12] | S. Flatsedge plant response rating [4, 13] | S. Flatsedge plant response rating ([4]; Rate 2000 g/ha, Pre-emergence (as headed), scale 0 to 10) | Giant foxtail plant response rating [5, 9] | Wheat plant response rating [6, 9] | Wheat plant response rating [6, 16] | Plant response rating, Wheat [6, 17] | Plant response rating, Wheat [6, 18] | Plant response rating, Wheat [6, 19] | Wheat plant response rating [6, 20] | Wheat plant response rating [6, 21] | Plant response rating, Morningglory [7, 17] | Plant response rating, Morningglory [7, 18] | Plant response rating, Morningglory [7, 19] | B. signalgrass plant response rating [8, 9] | B. signalgrass plant response rating [8, 16] | Plant response rating, B. signalgrass [8, 17] | Plant response rating, B. signalgrass [8, 18]
5: Plant response rating, Giant foxtail [5, 18]
